Measurements from ChEMBL document CHEMBL1782053, “Differences in CYP3A4 catalyzed bioactivation of 5-aminooxindole and 5-aminobenzsultam scaffolds in proline-rich tyrosine kinase 2 (PYK2) inhibitors: retrospective analysis by CYP3A4 molecular docking, quantum chemical calculations and glutathione adduct detection using linear ion trap/orbitrap …” (Bioorg Med Chem Lett, 2009).

How the values were obtained:
[1] = Dissociation constant, pKa of the compound; type: physicochemical
[2] = test system: Liver microsomes; assay: Metabolic stability in human liver microsome assessed as level of GSH adduct at 20 uM by ion trap/orbitrap MS analysis; type: ADME
[3] = test system: Liver microsomes; assay: Metabolic stability in human liver microsome assessed as level of GSH adduct at 1 to 10 uM by ion trap/orbitrap MS analysis; type: ADME

Row | SMILES | pKa [1] | Stability [2] | Stability [3]
1 | CN(C)[C@@H]1CCC[C@H]1Nc1nc(Nc2ccc3c(c2)CC(=O)N3)ncc1C(F)(F)F | 13.7 |  | 
2 | CN(C)[C@@H]1CCC[C@H]1Nc1nc(Nc2ccc3c(c2)CS(=O)(=O)N3)ncc1C(F)(F)F | 9.26 | Unstable | Stable
